Two molecules from US20240287082A1, “NEW BENZODIAZEPINE DERIVATIVES AS GABA A GAMMA1 PAM” (Hoffmann-La Roche Inc., priority 2021, published 2024) can be followed below.

A word on the Ki: it is a measure of affinity in units of concentration, obtained from inhibition or displacement.

The target of experiment [1] is human GABAA α1β2γ1 receptor (Homo sapiens (Human), UniProt P14867+Q8N1C3). As to the kind of experiment: Radioligand binding assay, competition for [3H]RO7239181, γ1-containing GABAA subtype α1β2γ1. Conditions: membranes of HEK293F cells, [3H]RO7239181 20-30 nM, mean of two determinations. The procedure: The affinity of compounds at GABAA γ1 subunit-containing receptors was measured by competition for [^3H]RO7239181 (67.3 Ci/mmol; Roche) binding to membranes from HEK293F cells (ThermoFisher R^79007) expressing human (transiently transfected) receptors of composition α5β2γ1, α2β2γ1, α1β2γ1.
Harvested pellets from HEK293F cells expressing the different GABAA receptor subtypes were resuspended in Mannitol Buffer pH 7.2-7.4 (Mannitol 0.29M, Triethylamine 10 mM, Acetic acid 10 mM, EDTA 1 mM plus protease inhibitors (20 tablets Complete, Roche Diagnostics Cat. No. 05 056 489 001 per liter)), washed two times and then resuspended at 1:10 to 1:15 dilution in the same buffer. Cell disruption was performed by stirring the suspension in a Parr vessel #4637 at 435 psi for 15 minutes, and then the suspensions were centrifuged at 1000×g for 15 minutes at 4° C. (Beckman Avanti J-HC: rotor JS-4.2). The supernatant (S1) was transferred in a 21 Schott flask and the pellet (P1) was resuspended with Mannitol Buffer up to 175 ml. The resuspended pellet was transferred into a 250 ml Corning centrifugal beaker and centrifuged at 1500×g for 10 minutes at 4° C. (Beckman Avanti J-HC: rotor JS-4.2). The supernatant (S1) was then transferred in the 21 Schott flask and the pellet was discarded. The supernatants (S1) were centrifuged in 500 ml Beckman polypropylene centrifugal beaker at 15 000×g for 30 minutes at 4° C. (Beckman Avanti J-20 XP: rotor JLA-10.500). The pellet (P2) was resuspended with Mannitol Buffer 1:1 and frozen at −80° C. The supernatant (S2) was centrifuged in 100 ml Beckman polypropylene centrifugal tubes at 48000×g for 50 minutes at 4° C. (Beckman Avanti J-20 XP: rotor JA-18). The supernatant (S3) was discarded and the pellet (P3) was resuspended with 1:1 Mannitol Buffer. The P2 and P3 protein concentration was determined with the BIORAD Standard assay method with bovine serum albumin as standard and measured on the NANO-Drop 1000. The membrane suspension was aliquots (500 μl per tube) and stored at −80° C. until required.
Membrane homogenates were resuspended and polytronised (Polytron PT1200E Kinematica AG) in Potassium Phosphate 10 mM, KCl 100 mM binding buffer at pH 7.4 to a final assay concentration determined with a previous experiment.
Assays were incubated to equilibrium for 1 hour at 4° C. and then, membranes were filtered onto unifilter (96-well white microplate with bonded GF/C filters preincubated 20-50 minutes in 0.3% Polyethylenimine) with a Filtermate 196 harvester (Packard BioScience) and washed 4 times with cold Potassium Phosphate 10 mM pH 7.4, KCl 100 mM binding buffer. After anhydrousing, filter-retained radioactivity was detected by liquid scintillation counting. Ki values were calculated using Excel-Fit (Microsoft) and are the means of two determinations.

Experiment [2] deals with h-GABA-A α2β2γ1 (Homo sapiens (Human), UniProt P47869+Q8N1C3). In words: Two-electrode voltage clamp electrophysiology in Xenopus oocytes expressing GABAA receptors, modulation of GABA EC20 current. It is filed as cell-based. Conditions: for Efficacy (GABA) %: % modulation of GABA EC20 = 100*(Fold increase−1), compound at 30-fold Ki α2β2γ1; for Fold increase h-GABA-A α2β2γ1 oocyte @ 30-fold Ki: Xenopus oocytes, GABA EC20, test compound at approx. 30-fold its Ki α2β2γ1. For orientation: Two-electrode voltage clamp is typically applied to oocytes expressing channels or transporters.

Regarding `O=c1ccn2c(n1)CN=C(c1ncccc1F)c1c-2ccc(Cl)c1Cl` [Example 3, 8,9-dichloro-7-(3-fluoro-2-pyridyl)-5H-pyrimido[1,2-a][1,4]benzodiazepin-3-one], the Ki in experiment [1] worked out at 183 nM. In addition, in experiment [2], the “Efficacy (GABA) %” value turned out to be 192% and the “Fold increase h-GABA-A α2β2γ1 oocyte @ 30-fold Ki” value came out at 2.92.

As for `C[C@@H]1N=C(c2c(F)cccc2F)c2c(ccc(C(F)(F)F)c2Cl)-n2ccc(=O)nc21` [Example 10, (5S)-8-chloro-7-(2,6-difluorophenyl)-5-methyl-9-(trifluoromethyl)-5H-pyrimido[1,2-a][1,4]benzodiazepin-3-one], the Ki in experiment [1] came to 159 nM. In experiment [2], the “Efficacy (GABA) %” value is 164% and the “Fold increase h-GABA-A α2β2γ1 oocyte @ 30-fold Ki” value was found to be 2.64.
